Legend:
Test in all cases: selective drug sensitivity score (sDSS, relative to normal bone marrow) (sDSS (score)); higher = more potent and effective on the cell line relative to normal bone marrow cells
Conditions in all cases: 72 h
P12-ICHIKAWA = test system: P12-ICHIKAWA
REH = test system: REH
MOLT-16 = test system: MOLT-16
COG-LL-394h = test system: COG-LL-394h
COG-LL-319h = test system: COG-LL-319h
NALL-1 = test system: NALL-1
PF-382 = test system: PF-382
RPMI-8402 = test system: RPMI-8402
KASUMI-9 = test system: KASUMI-9
MHH-CALL-2 = test system: MHH-CALL-2
SEM cells = test system: SEM cells
KARPAS-45 = test system: KARPAS-45
CCRF-CEM = test system: CCRF-CEM
KOPN-8 = test system: KOPN-8
NALM-16 = test system: NALM-16
COG-LL-402h = test system: COG-LL-402h
ALL-SIL = test system: ALL-SIL
COG-LL-355h = test system: COG-LL-355h
LC4-1 = test system: LC4-1
TMD5 = test system: TMD5
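Note: ALL cell lines in 384-well plates, five doses spanning 10,000-fold, each plate scaled between vehicle and 100 µmol/L benzalkonium chloride controls, sDSS an adapted area-under-curve metric.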

SMILES | selective drug sensitivity score (P12-ICHIKAWA) | selective drug sensitivity score (REH) | selective drug sensitivity score (MOLT-16) | selective drug sensitivity score (COG-LL-394h) | selective drug sensitivity score (COG-LL-319h) | selective drug sensitivity score (NALL-1) | selective drug sensitivity score (PF-382) | selective drug sensitivity score (RPMI-8402) | selective drug sensitivity score (KASUMI-9) | selective drug sensitivity score (MHH-CALL-2) | selective drug sensitivity score (SEM cells) | selective drug sensitivity score (KARPAS-45) | selective drug sensitivity score (CCRF-CEM) | selective drug sensitivity score (KOPN-8) | selective drug sensitivity score (NALM-16) | selective drug sensitivity score (COG-LL-402h) | selective drug sensitivity score (ALL-SIL) | selective drug sensitivity score (COG-LL-355h) | selective drug sensitivity score (LC4-1) | selective drug sensitivity score (TMD5)
O=C1Cc2cc(C(=O)NC3C[C@H]4CC[C@@H](C3)N4S(=O)(=O)CC3CCN(CCCC(F)(F)F)CC3)c(Cl)cc2N1 (stereo not given in full) (top concentration 10000 nM) | 0 | 3.5 | 0 | 0 | 0 | 0.6 | 0 | 0 | 0.6 | 0 | 0 | 0 | 0 | 0 | 0 | 0 | 0 | 0.9 | 0 | 2.6
CCCC(CCC)C(=O)O [Valproic_acid] (top concentration 1000000 nM) | 0 | 0 | 0 | 0 | 0 | 0 | 0 | 0 | 0 | 0 | 0 | 0 | 0 | 0 | 0 | 0 | 0 | 0 | 0 | 0
Cc1cnc(-c2ccccc2C(C)C)nc1NCc1ccc(-n2ccnn2)cc1 [ML323] (top concentration 10000 nM) | 1.74 | 3.44 | 3.04 | 3.64 | 1.14 | 0.14 | 3.04 | 3.44 | 0.04 | 0.24 | 1.14 | 4.64 | 0.44 | 1.14 | 0.64 | -0.36 | 2.64 | 2.04 | 0.54 | -0.26
NCCNc1ccc(NCCN)c2c1C(=O)c1ccncc1C2=O [Pixantrone] (top concentration 10000 nM) | -2.76 | 0.24 | -2.46 | -2.66 | -2.76 | -2.76 | -1.86 | -2.76 | -0.36 | 1.34 | -1.36 | -0.86 | -2.06 | -0.56 | -2.76 | -2.76 | -2.76 | 0.34 | -2.76 | -2.06
C=CC(=O)Nc1cccc(Nc2nc(Nc3ccc(OCCOC)cc3)ncc2F)c1 [Spebrutinib] (top concentration 1000 nM) | -0.16 | -0.16 | 0.64 | -0.16 | -0.06 | 6.34 | -0.16 | -0.16 | 4.84 | 5.84 | 3.74 | 1.14 | 1.64 | -0.16 | -0.16 | 0.84 | 1.64 | 0.64 | 0.54 | -0.16
CCCS(=O)(=O)Nc1ccc(F)c(C(=O)c2c[nH]c3ncc(-c4ccc(Cl)cc4)cc23)c1F [Vemurafenib] (top concentration 10000 nM) | 4.16 | 4.86 | 3.76 | -1.14 | 0.36 | -0.34 | 3.56 | 2.06 | 1.66 | 3.56 | 3.26 | 4.16 | 3.46 | 6.56 | -1.14 | -1.14 | 3.06 | 0.86 | 3.56 | 1.26
O=C(Nc1ccc(OC(F)(F)Cl)cc1)c1cnc(N2CC[C@@H](O)C2)c(-c2cc[nH]n2)c1 [Asciminib] (top concentration 1000 nM) | -1.98 | -1.98 | 8.42 | 4.52 | 10 | 3.62 | -1.78 | -1.98 | -1.68 | -1.98 | 5.72 | -1.98 | -1.98 | 11.4 | -1.98 | -1.98 | 31.2 | 2.02 | -1.98 | 13.6
C[C@H]1Oc2cc(cnc2N)-c2c(nn(C)c2C#N)CN(C)C(=O)c2ccc(F)cc21 (top concentration 1000 nM) | -0.72 | -0.72 | -0.32 | -0.72 | 7.38 | -0.72 | -0.72 | -0.72 | -0.72 | -0.72 | -0.72 | -0.72 | -0.72 | 11.3 | -0.72 | -0.72 | -0.32 | 2.18 | -0.72 | -0.62
CCNCCS(=O)(=O)NC[C@@]1(c2ccccc2)SC(NC(=O)C(C)(C)C)=NN1C(=O)C(C)(C)C [Litronesib] (top concentration 1000 nM) | 18.5 | 22.3 | 20.2 | 7.74 | 22.4 | 10.9 | 13.7 | 18.7 | 18.4 | 15.6 | 20.5 | 21.9 | 19.8 | 20.6 | 14.3 | 18 | 19.2 | 4.44 | 19.8 | 9.64
Cc1ccc(NC(=O)c2ccc(CN3CC[C@H](N(C)C)C3)c(C(F)(F)F)c2)cc1Nc1nccc(-c2cncnc2)n1 [Bafetinib] (top concentration 1000 nM) | 0 | 0.2 | 0 | 3 | 1.9 | 0 | 0 | 0 | 0 | 0 | 0 | 0 | 0 | 3.1 | 0 | 0.5 | 34 | 0.8 | 0.4 | 9.1
CN(C)CCCOc1ccc(-c2ccc3ncc4c(c3c2)n(C2CCOCC2)c(=O)n4C)cn1 [AZD0156] (top concentration 1000 nM) | 0.14 | 0.84 | 0.54 | -0.06 | 3.84 | 2.54 | 0.64 | 0.14 | 1.04 | 1.84 | 1.14 | 0.14 | 1.74 | 2.04 | -0.06 | 3.34 | 1.84 | 0.74 | 1.04 | -0.06
CC[C@H](C)C(=O)O[C@H]1C[C@@H](C)C=C2C=C[C@H](C)[C@H](CC[C@@H]3C[C@@H](O)CC(=O)O3)[C@H]21 [Lovastatin] (top concentration 10000 nM) | 1.4 | 1 | 1.7 | -0.1 | -0.1 | -0.1 | 0 | 1.8 | 2.7 | 8.7 | 5 | 3 | 0 | 4.3 | -0.1 | -0.1 | 0.9 | 0 | 0.8 | -0.1
CN(C)C/C=C/C(=O)Nc1cc2c(Nc3ccc(F)c(Cl)c3)ncnc2cc1O[C@H]1CCOC1 [Afatinib] (top concentration 1000 nM) | -0.74 | 5.46 | -0.34 | -0.84 | -0.84 | -0.84 | -0.84 | -0.84 | 2.16 | 0.16 | 0.96 | 1.06 | 0.66 | -0.74 | -0.84 | 0.46 | -0.84 | 0.46 | -0.84 | 3.56
COc1cc(OC)cc(N(CCNC(C)C)c2ccc3ncc(-c4cnn(C)c4)nc3c2)c1 [Erdafitinib] (top concentration 1000 nM) | -0.56 | 0.44 | -0.56 | -0.56 | 0.44 | 5.34 | -0.56 | -0.56 | 0.34 | 8.24 | 0.24 | -0.06 | -0.56 | -0.56 | -0.56 | 0.04 | 2.74 | -0.56 | -0.56 | 4.74
COc1cc2c(cc1OC(C)C)[C@H](c1ccc(Cl)cc1)N(c1ccc(N(C)C[C@H]3CC[C@H](N4CCN(C)C(=O)C4)CC3)cc1)C(=O)C2 [NVP-CGM097] (top concentration 25000 nM) | -5.64 | 5.16 | 10.4 | 6.56 | 10.8 | -6.34 | -5.04 | -4.64 | 14.5 | 10.8 | -4.84 | -3.94 | -4.24 | 10.4 | -4.54 | 12.1 | -6.74 | 2.86 | 10.1 | 7.86
FC(F)c1nc2ccccc2n1-c1nc(N2CCOCC2)nc(N2CCOCC2)n1 [ZSTK474] (top concentration 10000 nM) | 3.66 | 9.36 | 6.46 | 0.86 | 4.86 | 1.96 | 5.66 | 5.86 | 9.86 | 11.4 | 5.66 | 5.96 | 9.36 | 11.9 | 0.56 | 13.6 | 2.46 | 14.4 | -0.44 | -1.04
CN1CCN(c2ccc3nc(-c4c(N)c5c(F)cccc5[nH]c4=O)[nH]c3c2)CC1 [Dovitinib] (top concentration 10000 nM) | -0.14 | -0.14 | -0.14 | 1.36 | -0.14 | -0.14 | -0.14 | -0.14 | 0.56 | -0.14 | 10.1 | 0.26 | 0.26 | -0.14 | 0.96 | 2.96 | -0.14 | 3.66 | 0.06 | -0.14
COc1cc2nccc(Oc3ccc(NC(=O)NC4CC4)c(Cl)c3)c2cc1C(N)=O [Lenvatinib] (top concentration 2500 nM) | -0.24 | -0.24 | -0.04 | 0.26 | 6.16 | -0.24 | -0.24 | -0.24 | 1.36 | 1.46 | 0.36 | 0.16 | 0.16 | 0.86 | -0.24 | 1.56 | 5.56 | -0.24 | -0.24 | 0.66
